IC50 data for twelve compounds are collected here from patent US9771369B2, “Compounds and methods for kinase modulation, and indications therefor” (Plexxikon Inc., priority 2014, dated 2017).

Sequence of c-kit mutant D816V (P10721 other isoform, or with tags, fused parts or gaps D816V/del 694-753): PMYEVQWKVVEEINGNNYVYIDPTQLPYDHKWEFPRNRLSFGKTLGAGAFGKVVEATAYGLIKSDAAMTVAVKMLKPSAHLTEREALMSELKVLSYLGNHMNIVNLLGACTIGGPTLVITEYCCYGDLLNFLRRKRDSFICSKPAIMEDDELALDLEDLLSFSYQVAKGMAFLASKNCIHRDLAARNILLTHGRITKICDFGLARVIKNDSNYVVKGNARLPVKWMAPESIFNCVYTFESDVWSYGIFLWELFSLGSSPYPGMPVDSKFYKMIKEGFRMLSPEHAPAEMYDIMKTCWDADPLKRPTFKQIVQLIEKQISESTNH

The assay concerns the target c-kit mutant D816V (Homo sapiens (Human), UniProt P10721, D816V/DEL694-753). The experiment in a line: c-Kit mutant D816V biochemical assay (AlphaScreen kinase activity). The method in brief: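 AlphaScreen with streptavidin donor and PY30 acceptor beads read phosphotyrosine on biotin-(E4Y)10 substrate (30 nM). Enzyme: E. coli-expressed N-His c-Kit D816V, residues 551-934 lacking kinase insert 694-753. Reaction 30 min at room temperature, 10 μM ATP, 5% DMSO; IC50 fitted over 8 three-fold dilutions.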
For orientation: Alpha assays give light when donor and acceptor beads are brought close together.
For orientation: IC50 means the concentration needed to halve the response being measured. Lower therefore signals inhibition by little substance. The compound `Cc1nc(C2CCN(c3ncnc4[nH]c(-c5ccc(C#N)cc5)cc34)CC2)[nH]c1-c1ccc(C(F)(F)F)cc1` [P-3137, 4-[4-[4-[4-methyl-5-[4-(trifluoromethyl)phenyl]-1H-imidazol-2-yl]-1-piperidyl]-7H-pyrrolo[2,3-d]pyrimidin-6-yl]benzonitrile] gave an IC50 of 0.0001 to 1 µM.

In turn, `Cc1nc(C2CCN(c3ncnc4[nH]c(-c5cnn(C(F)F)c5)cc34)CC2)[nH]c1-c1ccc2c(c1)OCO2` [P-3138, 4-[4-[5-(1,3-benzodioxol-5-yl)-4-methyl-1H-imidazol-2-yl]-1-piperidyl]-6-[1-(difluoromethyl)pyrazol-4-yl]-7H-pyrrolo[2,3-d]pyrimidine] displayed an IC50 of 0.0001 to 1 µM.

In turn, `CCOc1ccc(-c2[nH]c(C3CCN(c4ncnc5[nH]c(-c6cnn(C(F)F)c6)cc45)CC3)nc2C)cc1C` [P-3139, 6-[1-(difluoromethyl)pyrazol-4-yl]-4-[4-[5-(4-ethoxy-3-methyl-phenyl)-4-methyl-1H-imidazol-2-yl]-1-piperidyl]-7H-pyrrolo[2,3-d]pyrimidine] came in with an IC50 of 0.0001 to 1 µM.

Take `CCC1(c2nc(C)c(-c3ccc(OC)cc3)[nH]2)CCN(c2ncnc3[nH]c(C)cc23)CC1` [P-3140, 4-[4-ethyl-4-[5-(4-methoxyphenyl)-4-methyl-1H-imidazol-2-yl]-1-piperidyl]-6-methyl-7H-pyrrolo[2,3-d]pyrimidine]: the IC50 lay within 0.0001 to 1 µM.

In the case of `CCC1(c2nc(C)c(-c3ccc(OC)c(C)c3)[nH]2)CCN(c2ncnc3[nH]c(C)cc23)CC1` [P-3141, 4-[4-ethyl-4-[5-(4-methoxy-3-methyl-phenyl)-4-methyl-1H-imidazol-2-yl]-1-piperidyl]-6-methyl-7H-pyrrolo[2,3-d]pyrimidine], the IC50 was 0.0001 to 1 µM.

Take `CCOc1ccc(-c2[nH]c(C3(CC)CCN(c4ncnc5[nH]c(C)cc45)CC3)nc2C)cc1C` [P-3142, 4-[4-[5-(4-ethoxy-3-methyl-phenyl)-4-methyl-1H-imidazol-2-yl]-4-ethyl-1-piperidyl]-6-methyl-7H-pyrrolo[2,3-d]pyrimidine]: the IC50 is 0.0001 to 1 µM.

Compound `CCC1(c2nc(C)c(-c3ccc4c(c3)OCO4)[nH]2)CCN(c2ncnc3[nH]c(C)cc23)CC1` [P-3143, 4-[4-[5-(1,3-benzodioxol-5-yl)-4-methyl-1H-imidazol-2-yl]-4-ethyl-1-piperidyl]-6-methyl-7H-pyrrolo[2,3-d]pyrimidine] registered an IC50 of 0.0001 to 1 µM.

`CCC1(c2nc(C)c(-c3ccc4c(c3)OCCO4)[nH]2)CCN(c2ncnc3[nH]c(C)cc23)CC1` [P-3144, 4-[4-[5-(2,3-dihydro-1,4-benzodioxin-6-yl)-4-methyl-1H-imidazol-2-yl]-4-ethyl-1-piperidyl]-6-methyl-7H-pyrrolo[2,3-d]pyrimidine] displayed an IC50 of 0.0001 to 1 µM.

The compound `CCOc1ccc(-c2[nH]c(C3(CC)CCN(c4ncnc5[nH]c(C)cc45)CC3)nc2C)cc1` [P-3145, 4-[4-[5-(4-ethoxyphenyl)-4-methyl-1H-imidazol-2-yl]-4-ethyl-1-piperidyl]-6-methyl-7H-pyrrolo[2,3-d]pyrimidine] registered an IC50 of 0.0001 to 1 µM.

As for `COc1ccc(-c2[nH]c(C3CCN(c4ncnc5[nH]c(-c6ccnc(OC)c6)cc45)CC3)nc2C(F)(F)F)cc1` [P-3146, 4-[4-[5-(4-methoxyphenyl)-4-(trifluoromethyl)-1H-imidazol-2-yl]-1-piperidyl]-6-(2-methoxy-4-pyridyl)-7H-pyrrolo[2,3-d]pyrimidine], the half-inhibitory concentration (IC50) lay in the range of 0.0001 to 1 µM.

Turning to `COc1ccc(-c2[nH]c(C3CCN(c4ncnc5[nH]c(-c6ccc(C#N)cc6)cc45)CC3)nc2C(F)(F)F)cc1` [P-3148, 4-[4-[4-[5-(4-methoxyphenyl)-4-(trifluoromethyl)-1H-imidazol-2-yl]-1-piperidyl]-7H-pyrrolo[2,3-d]pyrimidin-6-yl]benzonitrile], the IC50 fell in the range of 0.0001 to 1 µM.

`COc1cc(-c2cc3c(N4CCC(c5nc(C)c(-c6ccc(C(F)(F)F)cc6)[nH]5)CC4)ncnc3[nH]2)ccn1` [P-3149, 6-(2-methoxy-4-pyridyl)-4-[4-[4-methyl-5-[4-(trifluoromethyl)phenyl]-1H-imidazol-2-yl]-1-piperidyl]-7H-pyrrolo[2,3-d]pyrimidine] displayed an IC50 of 0.0001 to 1 µM.
